Assay results taken from US20150250176A1, “METHOD FOR ENHANCING TOLERANCE TO ABIOTIC STRESS IN PLANTS USING CARBOXAMIDE OR THIOCARBOXAMIDE DERIVATIVES” (BAYER CROPSCIENCE AG, priority 2012, published 2015).

Assays:
[1] = system: BRSNS (Brassica napus); experiment: Drought stress test on crop plants, spray application, BRSNS; type: in vivo; conditions: mean of 2 or more experiments
Method: (§1) Seeds of monocotyledonous and dicotyledonous crop plants were placed in sandy loam in wood-fiber pots, covered with soil and cultivated in a greenhouse under good growth conditions. The test plants were treated at the early leaf stage (BBCH10-BBCH13). To ensure uniform water supply before commencement of stress, the potted plants were supplied with the maximum amount of water immediately beforehand by dam irrigation.
(§2) The inventive compounds, formulated in the form of wettable powders (WP) were sprayed onto the green parts of the plants as an aqueous suspension at an equivalent water application rate of 600 l/ha with addition of 0.2% wetting agent (agrotin). Substance application was followed immediately by stress treatment of the plants, for which the pots were transferred in plastic inserts in order to prevent subsequent, excessively rapid drying.
(§3) Drought stress was induced by gradual drying out under the following conditions: • “day”: 14 hours with illumination at ˜26° C. • “night”: 10 hours without illumination at ˜18° C.
(§4) The duration of the respective stress phases was guided mainly by the state of the untreated, stressed control plants and thus varies from crop to crop. It was ended (by re-irrigating or transfer to a greenhouse with good growth conditions) as soon as irreversible damage is observed on the untreated, stressed control plants. In the case of dicotyledonous crops, for example oilseed rape and soya, the duration of the drought stress phase was between 3 and 6 days, in the case of monocotyledonous crops, for example wheat, barley or corn, between 6 and 11 days.
(§5) The end of the stress phase was followed by an approx. 5-7-day recovery phase, during which the plants were once again kept under good growth conditions in a greenhouse. In order to rule out any influence of the effects observed by any fungicidal action of the test compounds, it was additionally ensured that the tests proceed without fungal infection and without infection pressure.
(§6) After the recovery phase had ended, the intensities of damage were rated visually compared to untreated, unstressed controls of the same age (in the case of drought stress) or the same growth stage (in the case of cold stress). The intensity of damage was first assessed as a percentage (100% =plants have died, 0% =like control plants). These values were then used to calculate the efficacy of the test compounds (=percentage reduction in the intensity of damage as a result of substance application) by the following formula:
(§7) [formula] • EF: efficacy (%) • DVus: damage value of the untreated, stressed control • […] with test compound
(§8) The tables below list mean values in each case from 2 or more independent experiments.
(§9) Tables A.1 to A.3 show, by way of example, the efficacies of compound of formula (I) as herein defined under drought stress and in conjunction with application to different crop plants, i.e. in table A.1 on application to BRSNS (Brassica napus), in table A.2 on application to TRZAS (Triticum aestivum) and in table A.3 on application to ZEAMX (Zea mays): […]

[2] = system: TRZAS (Triticum aestivum); experiment: Drought stress test on crop plants, spray application, TRZAS; type: in vivo; conditions: for pest or weed control at 25 g/ha: dosage 25 g/ha; for pest or weed control at 25 g/ha / pest or weed control at 250 g/ha / percent reduction in drought damage at 25 g/ha / percent reduction in drought damage at 250 g/ha: read-out: EF (TRZAS), efficacy = percentage reduction in the intensity of damage
Method: as §1, §2, §3, §4, §5, §6, §7, §8, §9

[3] = logP determination by HPLC on a reversed-phase column (EEC Directive 79/831 Annex V.A8); conditions: reversed-phase C18 HPLC column
Method: Temperature: 40° C.; Mobile phases: 0.1% aqueous formic acid and acetonitrile; linear gradient from 10% acetonitrile to 90% acetonitrile.
Calibration was carried out using unbranched alkan-2-ones (comprising 3 to 16 carbon atoms) with known logP values (determination of the logP values by the retention times using linear interpolation between two successive alkanones). lambda-max-values were determined using UV-spectra from 200 nm to 400 nm and the peak values of the chromatographic signals.

[4] = system: ZEAMX (Zea mays); experiment: Drought stress test on crop plants, spray application, ZEAMX; type: in vivo; conditions: dosage 250 g/ha, mean of 2 or more experiments
Method: as §1, §2
Drought stress was induced by gradual drying out under the following conditions: • “day”: 14 hours with illumination at ˜26° C. • “night”: 10 hours without illumination at ˜18° C. […]
After the recovery phase had ended, the intensities of damage were rated visually compared to untreated, unstressed controls of the same age (in the case of drought stress) or the same growth stage (in the case of cold stress). The intensity of damage was first assessed as a percentage (100% =plants have died, 0% =like control plants). […]

[5] = drought stress, spray, mean of 2 or more experiments
[6] = drought stress, dosage 250 g/ha, spray, mean of 2 or more experiments

For CC(C)c1ccc(Cl)cc1CN(C(=O)c1c(C(F)F)nn(C)c1F)C1CC1 [Compound A5, N-(5-chloro-2-isopropylbenzyl)-N-cyclopropyl-3-(difluoromethyl)-5-fluoro-1-methyl-1H-pyrazole-4-carboxamide], the “EF (BRSNS), efficacy = percentage reduction in the intensity of damage” value ([1]; dosage 25 g/ha) was over 5%, the pest or weed control at 25 g/ha [2, 5] was over 5% and the pest or weed control at 250 g/ha [2, 6] was over 5%. The chromatographic logP [3] was 4.09.

In the case of Cc1ccc(C2CC2)c(CN(C(=O)c2c(C(F)F)nn(C)c2F)C2CC2)c1 [Compound A13, N-cyclopropyl-N-(2-cyclopropyl-5-methylbenzyl)-3-(difluoromethyl)-5-fluoro-1-methyl-1H-pyrazole-4-carboxamide], the chromatographic logP [3] is reported as 3.76.

In the case of CCc1ccc(F)cc1CN(C(=O)c1c(C(F)F)nn(C)c1F)C1CC1 [Compound A6, N-cyclopropyl-3-(difluoromethyl)-N-(2-ethyl-5-fluorobenzyl)-5-fluoro-1-methyl-1H-pyrazole-4-carboxamide], the “EF (BRSNS), efficacy = percentage reduction in the intensity of damage” value ([1]; dosage 25 g/ha) is reported as over 5%, the pest or weed control at 25 g/ha [2, 5] is reported as over 5% and the pest or weed control at 250 g/ha [2, 6] is reported as over 5%. For the same compound, the chromatographic logP [3] was 3.41.

In the case of CCc1cc(C)c(C)cc1CN(C(=O)c1c(C(F)F)nn(C)c1F)C1CC1 [Compound A19, N-cyclopropyl-3-(difluoromethyl)-N-(2-ethyl-4,5-dimethylbenzyl)-5-fluoro-1-methyl-1H-pyrazole-4-carboxamide], the “EF (BRSNS), efficacy = percentage reduction in the intensity of damage” value ([1]; dosage 25 g/ha) is reported as over 5%, the pest or weed control at 25 g/ha [2, 5] is reported as over 5% and the chromatographic logP [3] is reported as 4.04.

In the case of “N-cyclopropyl-3-(difluoromethyl)-5-fluoro-N-(2-isopropylbenzyl)-1-methyl-1H-pyrazole-4-carbothio-amide [Compound A20]”, the “EF (TRZAS), efficacy = percentage reduction in the intensity of damage” value [2, 6] is reported as over 5%.

In the case of Cn1nc(C(F)F)c(C(=O)N(Cc2cc(F)ccc2C2CCCC2)C2CC2)c1F [Compound A9, N-(2-cyclopentyl-5-fluorobenzyl)-N-cyclopropyl-3-(difluoromethyl)-5-fluoro-1-methyl-1H-pyrazole-4-carboxamide], the chromatographic logP [3] is reported as 4.21.

With CCc1ccc(C)cc1CN(C(=O)c1c(C(F)F)nn(C)c1F)C1CC1 [Compound A11, N-cyclopropyl-3-(difluoromethyl)-N-(2-ethyl-5-methylbenzyl)-5-fluoro-1-methyl-1H-pyrazole-4-carboxamide] the pest or weed control at 25 g/ha [2, 5] was over 5% and the chromatographic logP [3] was 3.7.

CC(C)c1cccc(F)c1CN(C(=O)c1c(C(F)F)nn(C)c1F)C1CC1 [Compound A10, N-cyclopropyl-3-(difluoromethyl)-5-fluoro-N-(2-fluoro-6-isopropylbenzyl)-1-methyl-1H-pyrazole-4-carboxamide] showed a chromatographic logP [3] of 3.65.

For Cc1ccc(C(C)C)c(CN(C(=O)c2c(C(F)F)nn(C)c2F)C2CC2)c1 [Compound A12, N-cyclopropyl-3-(difluoromethyl)-5-fluoro-N-(2-isopropyl-5-methylbenzyl)-1-methyl-1H-pyrazole-4-carboxamide], the “EF (BRSNS), efficacy = percentage reduction in the intensity of damage” value ([1]; dosage 2.5 g/ha) was over 5%, the “EF (BRSNS), efficacy = percentage reduction in the intensity of damage” value ([1]; dosage 25 g/ha) was over 5% and the “EF (BRSNS), efficacy = percentage reduction in the intensity of damage” value ([1]; dosage 250 g/ha) was over 5%. The chromatographic logP [3] was 3.99.

With CC(C)c1ccc(F)cc1CN(C(=O)c1c(C(F)F)nn(C)c1F)C1CC1 [Compound A7, N-cyclopropyl-3-(difluoromethyl)-5-fluoro-N-(5-fluoro-2-isopropylbenzyl)-1-methyl-1H-pyrazole-4-carboxamide] the “EF (BRSNS), efficacy = percentage reduction in the intensity of damage” value ([1]; dosage 250 g/ha) was over 5% and the chromatographic logP [3] was 3.7.

With CCc1ccc(Cl)cc1CN(C(=O)c1c(C(F)F)nn(C)c1F)C1CC1 [Compound A4, N-(5-chloro-2-ethylbenzyl)-N-cyclopropyl-3-(difluoromethyl)-5-fluoro-1-methyl-1H-pyrazole-4-carboxamide] the percent reduction in drought damage at 25 g/ha [2] was over 5% and the chromatographic logP [3] was 3.76.

Compound Cn1nc(C(F)F)c(C(=O)N(Cc2c(Cl)cccc2C(F)(F)F)C2CC2)c1F [Compound A17, N-[2-chloro-6-(trifluoromethyl)benzyl]-N-cyclopropyl-3-(difluoromethyl)-5-fluoro-1-methyl-1H-pyrazole-4-carboxamide] has a chromatographic logP [3] of 3.46.

Cn1nc(C(F)F)c(C(=O)N(Cc2cc(Cl)ccc2C(F)(F)F)C2CC2)c1F [Compound A15, N-[5-chloro-2-(trifluoromethyl)benzyl]-N-cyclopropyl-3-(difluoromethyl)-5-fluoro-1-methyl-1H-pyrazole-4-carboxamide] gave a chromatographic logP [3] of 3.8.

Compound Cc1ccc(C(F)(F)F)c(CN(C(=O)c2c(C(F)F)nn(C)c2F)C2CC2)c1 [Compound A16, N-cyclopropyl-3-(difluoromethyl)-5-fluoro-1-methyl-N-[5-methyl-2-(trifluoromethyl)benzyl]-1H-pyrazole-4-carboxamide] has a percent reduction in drought damage at 250 g/ha [2] of over 5% and a chromatographic logP [3] of 3.78.

Compound Cn1nc(C(F)F)c(C(=O)N(Cc2ccccc2C(C)(C)C)C2CC2)c1F [Compound A3, N-(2-tert-butylbenzyl)-N-cyclopropyl-3-(difluoromethyl)-5-fluoro-1-methyl-1H-pyrazole-4-carboxamide] has a percent reduction in drought damage at 25 g/ha [2] of over 5%, a percent reduction in drought damage at 250 g/ha [2] of over 5% and a chromatographic logP [3] of 4.06.

For Cn1nc(C(F)F)c(C(=O)N(Cc2cc(F)ccc2C2CC2)C2CC2)c1F [Compound A8, N-cyclopropyl-N-(2-cyclopropyl-5-fluorobenzyl)-3-(difluoromethyl)-5-fluoro-1-methyl-1H-pyrazole-4-carboxamide], the “EF (BRSNS), efficacy = percentage reduction in the intensity of damage” value ([1]; dosage 2.5 g/ha) was over 5%, the “EF (ZEAMX), efficacy = percentage reduction in the intensity of damage” value [4] was over 5% and the chromatographic logP [3] was 3.46.

Compound Cc1ccc(C(C)(C)C)c(CN(C(=O)c2c(C(F)F)nn(C)c2F)C2CC2)c1 [Compound A14, N-(2-tert-butyl-5-methylbenzyl)-N-cyclopropyl-3-(difluoromethyl)-5-fluoro-1-methyl-1H-pyrazole-4-carboxamide] has a percent reduction in drought damage at 250 g/ha [2] of over 5% and a chromatographic logP [3] of 4.36.

Compound Cn1nc(C(F)F)c(C(=O)N(Cc2c(C(F)(F)F)ccc(Cl)c2F)C2CC2)c1F [Compound A18, N-[3-chloro-2-fluoro-6-(trifluoromethyl)benzyl]-N-cyclopropyl-3-(difluoromethyl)-5-fluoro-1-methyl-1H-pyrazole-4-carboxamide] has a chromatographic logP [3] of 3.62.

With Cn1nc(C(F)F)c(C(=O)N(Cc2ccccc2C2CC2)C2CC2)c1F [Compound A2, N-cyclopropyl-N-(2-cyclopropylbenzyl)-3-(difluoromethyl)-5-fluoro-1-methyl-1H-pyrazole-4-carboxamide] the “EF (BRSNS), efficacy = percentage reduction in the intensity of damage” value ([1]; dosage 2.5 g/ha) was over 5%, the “EF (BRSNS), efficacy = percentage reduction in the intensity of damage” value ([1]; dosage 25 g/ha) was over 5% and the “EF (BRSNS), efficacy = percentage reduction in the intensity of damage” value ([1]; dosage 250 g/ha) was over 5%. The chromatographic logP [3] was 3.44.

Compound CC(C)c1ccccc1CN(C(=O)c1c(C(F)F)nn(C)c1F)C1CC1 [Compound A1, N-cyclopropyl-3-(difluoromethyl)-5-fluoro-N-(2-isopropylbenzyl)-1-methyl-1H-pyrazole-4-carboxamide] has a chromatographic logP [3] of 3.35.
